Here are results for one molecule from ChEMBL document CHEMBL4725292 (J Med Chem, 2020).

Each structure is given as a SMILES string. The source made the active and inactive calls. The calls are words filed in the database; no cut-off is given here.

The target in data set [1] is T1, Bromodomain testis-specific protein (Homo sapiens, UniProt Q58F21). As to the kind of experiment: Binding affinity to full length BRDT BD1 in human HuT78 cell lysates incubated for 45 mins by liquid chromatography-mass spectrometry based chemoproteomic binding assay. It counts as subcellular.
The test system of data set [2] is B cell. The data set can be described thus: Downregulation of IL-6 secretion in human B cells cocultured with human PBMC at 0.37 to 10 uM preincubated for 1 hr followed by anti-IgM and TCR stimulation and measured after 84 hrs by ELISA. It is filed as functional, cell-based. The settings on record: dose microM 0.37-10, time 1.0 hrs. A general note: ELISA stands for enzyme-linked immunosorbent assay.

Data set [3] relates to B cell. The data set can be described thus: Downregulation of Ig-G secretion in human B cells cocultured with human PBMC at 0.37 to 10 uM preincubated for 1 hr followed by anti-IgM and TCR stimulation and measured after 84 hrs by ELISA. It counts as functional, cell-based. The note with it: dose microM 0.37-10, time 1.0 hrs.
Data set [4] in a line: Intrinsic clearance in rat hepatocytes at 0.5 uM measured up to 60 mins by LC-MS/MS analysis. It is filed as ADME, cell-based, Hepatocyte. The settings on record: 1 h.
The subject of data set [5] is THP-1. As to the kind of experiment: Antiproliferative activity against human THP-1 cells after 72 hrs by cell titer glo assay. The note with it: THP-1, 72 h. It is filed as functional, cell-based. Background: Cellular ATP, detected with luciferase, serves as a proxy for viable cell number.
In data set [6] the target is T2, ATPase family AAA domain-containing protein 2 (Homo sapiens, UniProt Q6PL18).
T2 sequence (Q6PL18 whole entry): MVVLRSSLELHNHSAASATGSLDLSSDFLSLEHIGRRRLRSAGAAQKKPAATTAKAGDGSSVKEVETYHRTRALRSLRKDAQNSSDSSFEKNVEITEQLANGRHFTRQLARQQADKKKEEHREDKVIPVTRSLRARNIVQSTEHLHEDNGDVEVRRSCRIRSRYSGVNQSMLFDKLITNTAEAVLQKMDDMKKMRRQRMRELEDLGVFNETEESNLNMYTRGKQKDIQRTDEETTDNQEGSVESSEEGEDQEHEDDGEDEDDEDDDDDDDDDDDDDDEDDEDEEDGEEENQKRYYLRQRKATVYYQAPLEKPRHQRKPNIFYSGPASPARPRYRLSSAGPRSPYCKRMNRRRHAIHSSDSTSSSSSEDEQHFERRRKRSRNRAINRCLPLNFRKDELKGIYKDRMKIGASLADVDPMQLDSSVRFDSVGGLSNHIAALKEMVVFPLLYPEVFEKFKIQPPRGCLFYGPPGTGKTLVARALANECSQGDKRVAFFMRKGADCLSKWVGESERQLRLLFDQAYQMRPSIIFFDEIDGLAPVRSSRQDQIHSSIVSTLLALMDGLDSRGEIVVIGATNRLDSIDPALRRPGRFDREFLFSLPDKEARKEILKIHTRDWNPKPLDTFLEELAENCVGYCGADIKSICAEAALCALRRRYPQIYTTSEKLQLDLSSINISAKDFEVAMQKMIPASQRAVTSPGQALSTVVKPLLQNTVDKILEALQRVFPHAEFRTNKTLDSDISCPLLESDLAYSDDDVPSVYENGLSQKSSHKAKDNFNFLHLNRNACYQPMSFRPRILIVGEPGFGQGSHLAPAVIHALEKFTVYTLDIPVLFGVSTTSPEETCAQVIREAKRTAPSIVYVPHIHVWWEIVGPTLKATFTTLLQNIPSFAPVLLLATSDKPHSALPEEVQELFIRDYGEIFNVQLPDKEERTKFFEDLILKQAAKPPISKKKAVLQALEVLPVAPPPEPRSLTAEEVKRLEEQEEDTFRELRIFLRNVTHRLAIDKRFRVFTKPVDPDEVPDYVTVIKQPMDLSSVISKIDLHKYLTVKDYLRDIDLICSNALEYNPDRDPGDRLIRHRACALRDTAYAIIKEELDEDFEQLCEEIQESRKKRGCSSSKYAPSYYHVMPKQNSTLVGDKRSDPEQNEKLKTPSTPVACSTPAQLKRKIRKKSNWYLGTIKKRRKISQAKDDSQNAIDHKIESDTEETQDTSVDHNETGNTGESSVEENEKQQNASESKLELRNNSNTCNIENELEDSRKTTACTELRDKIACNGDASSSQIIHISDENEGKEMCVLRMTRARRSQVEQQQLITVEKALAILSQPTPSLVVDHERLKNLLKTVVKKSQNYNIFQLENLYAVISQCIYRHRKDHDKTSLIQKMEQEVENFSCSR
As to the kind of experiment: Binding affinity to human partial length ATAD2A (Q981 to R1108 residues) expressed in bacterial expression system by BROMOscan assay.

The target of data set [7] is T3, Bromodomain-containing protein 2 (Homo sapiens, UniProt P25440). The data set can be described thus: Binding affinity to full length BRD2 BD1 in human HuT78 cell lysates incubated for 45 mins by liquid chromatography-mass spectrometry based chemoproteomic binding assay. It counts as subcellular.
In data set [8] the target is T4, Bromodomain-containing protein 3 (Homo sapiens, UniProt Q15059). The data set can be described thus: Binding affinity to human partial length BRD3 bromodomain 2 (G306 to P416 residues) expressed in bacterial expression system by BROMOscan assay.
The target of data set [9] is T1, Bromodomain testis-specific protein. As to the kind of experiment: Binding affinity to full length BRDT BD2 in human HuT78 cell lysates incubated for 45 mins by liquid chromatography-mass spectrometry based chemoproteomic binding assay. It counts as subcellular.
For data set [10], the system named is Blood. The data set can be described thus: Inhibition of LPS-induced IL6 production in human whole blood preincubated for 30 mins followed by LPS addition and measured after overnight incubation by mesoscale assay. It is filed as functional, tissue-based.
For data set [11], the target named is Transcription initiation factor TFIID subunit 1 (Homo sapiens, UniProt P21675). As to the kind of experiment: Displacement of AlexaFluor 488-labelled BD-AF488 from TAF1 BD2 (unknown origin) incubated for 15 mins by TR-FRET assay. (In general: In TR-FRET formats the signal depends on donor and acceptor labels being close together.)
Data set [12] concerns the target Transcription initiation factor TFIID subunit 1-like (Homo sapiens, UniProt Q8IZX4). The data set can be described thus: Binding affinity to human partial length TAF1L bromodomain 2 (Q1523 to D1654 residues) expressed in bacterial expression system by BROMOscan assay.
The target of data set [13] is T4, Bromodomain-containing protein 3. As to the kind of experiment: Binding affinity to full length BRD3 BD1 in human HuT78 cell lysates incubated for 45 mins by liquid chromatography-mass spectrometry based chemoproteomic binding assay. It counts as subcellular.
The nature of data set [14]: Intrinsic clearance in mouse hepatocytes at 0.5 uM by LC-MS/MS analysis. It is filed as ADME, cell-based, Hepatocyte.
For data set [15], the target named is T3, Bromodomain-containing protein 2. As to the kind of experiment: Binding affinity to full length BRD2 BD2 in human HuT78 cell lysates incubated for 45 mins by liquid chromatography-mass spectrometry based chemoproteomic binding assay. It is filed as subcellular.
Data set [16] in a line: Permeability of the compound in pH 7.4 phosphate buffer measured after 3 hrs by artificial membrane permeability assay based HPLC analysis. It counts as ADME. The settings on record: PAMPA, pH 7.4, read-out: permeability.

T4 sequence (Q15059 whole entry, the tested form may be a part): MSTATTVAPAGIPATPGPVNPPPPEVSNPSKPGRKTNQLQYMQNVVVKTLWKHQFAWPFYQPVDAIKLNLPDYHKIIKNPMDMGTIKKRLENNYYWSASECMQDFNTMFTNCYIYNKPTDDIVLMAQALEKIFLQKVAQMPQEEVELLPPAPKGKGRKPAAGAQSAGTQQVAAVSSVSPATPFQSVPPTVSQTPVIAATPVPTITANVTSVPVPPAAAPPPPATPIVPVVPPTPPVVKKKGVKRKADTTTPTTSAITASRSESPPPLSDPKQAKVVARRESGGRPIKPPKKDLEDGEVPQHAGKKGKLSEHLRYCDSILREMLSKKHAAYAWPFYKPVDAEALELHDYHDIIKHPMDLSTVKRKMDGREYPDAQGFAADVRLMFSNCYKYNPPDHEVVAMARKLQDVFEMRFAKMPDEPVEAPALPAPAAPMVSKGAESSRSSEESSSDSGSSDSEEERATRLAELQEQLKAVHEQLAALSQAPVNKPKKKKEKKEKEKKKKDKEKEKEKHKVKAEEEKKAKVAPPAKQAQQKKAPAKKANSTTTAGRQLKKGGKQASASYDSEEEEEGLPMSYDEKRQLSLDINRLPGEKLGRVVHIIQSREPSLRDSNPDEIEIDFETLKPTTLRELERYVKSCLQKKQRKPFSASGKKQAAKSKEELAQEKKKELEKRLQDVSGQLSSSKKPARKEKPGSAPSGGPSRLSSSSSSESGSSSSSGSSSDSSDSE
T3 sequence (P25440 whole entry, the tested form may be a part): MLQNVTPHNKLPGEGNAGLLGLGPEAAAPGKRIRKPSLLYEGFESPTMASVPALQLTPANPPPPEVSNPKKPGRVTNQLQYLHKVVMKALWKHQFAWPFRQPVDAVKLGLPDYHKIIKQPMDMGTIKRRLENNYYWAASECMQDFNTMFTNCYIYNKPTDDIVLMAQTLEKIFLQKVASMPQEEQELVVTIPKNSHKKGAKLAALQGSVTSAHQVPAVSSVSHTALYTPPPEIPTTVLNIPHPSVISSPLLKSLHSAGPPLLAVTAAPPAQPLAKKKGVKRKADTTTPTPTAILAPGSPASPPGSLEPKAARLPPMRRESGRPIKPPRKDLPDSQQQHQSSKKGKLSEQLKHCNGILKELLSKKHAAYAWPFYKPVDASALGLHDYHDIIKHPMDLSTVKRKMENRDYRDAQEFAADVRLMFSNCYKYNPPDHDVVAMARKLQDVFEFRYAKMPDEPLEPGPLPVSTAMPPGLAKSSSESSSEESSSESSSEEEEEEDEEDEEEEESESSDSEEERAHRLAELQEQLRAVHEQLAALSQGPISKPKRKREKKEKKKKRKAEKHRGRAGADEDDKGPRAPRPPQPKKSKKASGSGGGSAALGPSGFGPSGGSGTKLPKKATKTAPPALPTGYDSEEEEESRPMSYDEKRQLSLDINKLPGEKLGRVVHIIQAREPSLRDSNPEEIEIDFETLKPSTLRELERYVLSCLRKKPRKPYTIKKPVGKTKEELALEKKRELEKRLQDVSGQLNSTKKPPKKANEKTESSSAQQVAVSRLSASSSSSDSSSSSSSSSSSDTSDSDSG
Transcription initiation factor TFIID subunit 1-like, sequence (Q8IZX4 whole entry, the tested form may be a part): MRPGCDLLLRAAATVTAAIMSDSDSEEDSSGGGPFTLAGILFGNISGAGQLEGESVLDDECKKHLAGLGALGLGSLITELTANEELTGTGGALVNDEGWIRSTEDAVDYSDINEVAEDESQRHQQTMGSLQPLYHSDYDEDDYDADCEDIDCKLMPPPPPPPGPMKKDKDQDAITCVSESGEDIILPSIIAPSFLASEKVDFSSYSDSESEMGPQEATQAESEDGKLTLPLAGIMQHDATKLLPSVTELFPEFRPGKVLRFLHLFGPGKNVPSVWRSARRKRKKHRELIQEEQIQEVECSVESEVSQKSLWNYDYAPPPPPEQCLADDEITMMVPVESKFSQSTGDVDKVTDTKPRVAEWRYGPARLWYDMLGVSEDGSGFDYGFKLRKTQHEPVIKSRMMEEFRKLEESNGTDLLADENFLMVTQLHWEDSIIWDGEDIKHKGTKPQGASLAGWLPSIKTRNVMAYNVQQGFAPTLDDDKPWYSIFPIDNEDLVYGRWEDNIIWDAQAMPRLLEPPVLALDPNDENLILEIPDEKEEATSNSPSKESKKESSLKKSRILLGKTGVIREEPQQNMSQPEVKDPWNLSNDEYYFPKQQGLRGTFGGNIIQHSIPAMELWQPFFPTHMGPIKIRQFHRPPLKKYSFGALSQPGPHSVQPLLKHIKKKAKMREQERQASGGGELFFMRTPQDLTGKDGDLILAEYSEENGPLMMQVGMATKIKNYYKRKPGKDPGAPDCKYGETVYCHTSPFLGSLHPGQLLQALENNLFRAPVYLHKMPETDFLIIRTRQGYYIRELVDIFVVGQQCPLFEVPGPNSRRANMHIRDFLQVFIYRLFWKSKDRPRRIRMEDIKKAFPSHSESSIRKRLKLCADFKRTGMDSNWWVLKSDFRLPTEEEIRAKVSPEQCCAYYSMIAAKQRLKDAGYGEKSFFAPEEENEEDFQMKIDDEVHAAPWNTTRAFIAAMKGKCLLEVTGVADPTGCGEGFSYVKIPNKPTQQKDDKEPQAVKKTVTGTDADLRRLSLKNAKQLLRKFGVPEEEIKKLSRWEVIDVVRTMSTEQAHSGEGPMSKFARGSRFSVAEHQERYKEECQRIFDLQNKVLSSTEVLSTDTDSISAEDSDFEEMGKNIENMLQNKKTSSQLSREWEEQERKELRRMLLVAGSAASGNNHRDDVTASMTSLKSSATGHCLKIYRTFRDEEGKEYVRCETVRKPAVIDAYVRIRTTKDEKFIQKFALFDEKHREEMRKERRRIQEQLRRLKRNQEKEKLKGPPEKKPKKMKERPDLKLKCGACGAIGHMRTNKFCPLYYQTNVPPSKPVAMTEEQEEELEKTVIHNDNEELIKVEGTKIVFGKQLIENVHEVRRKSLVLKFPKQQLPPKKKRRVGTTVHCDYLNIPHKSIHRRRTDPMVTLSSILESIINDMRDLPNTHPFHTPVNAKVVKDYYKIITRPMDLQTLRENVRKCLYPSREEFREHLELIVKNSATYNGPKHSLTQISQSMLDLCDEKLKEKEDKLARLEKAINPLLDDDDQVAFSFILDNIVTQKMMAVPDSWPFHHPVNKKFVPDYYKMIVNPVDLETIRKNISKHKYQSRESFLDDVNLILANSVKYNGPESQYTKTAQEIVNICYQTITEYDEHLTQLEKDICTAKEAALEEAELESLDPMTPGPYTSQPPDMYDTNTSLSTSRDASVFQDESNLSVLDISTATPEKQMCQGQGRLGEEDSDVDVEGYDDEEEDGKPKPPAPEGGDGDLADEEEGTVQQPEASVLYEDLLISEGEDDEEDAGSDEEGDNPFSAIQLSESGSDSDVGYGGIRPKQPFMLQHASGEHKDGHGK

What is called Kd is the free concentration of one partner at which half of the binding sites on the other are occupied at equilibrium, for simple one-to-one binding. A low value points to tighter binding. By IC50 is commonly meant the concentration that inhibits the measured activity by half. Read a low IC50 as greater potency in that assay. As for `Cc1cc2c(-c3ccco3)cnc(N[C@@H]3CCN(C)C[C@H]3C(=O)NC3CCCCC3)c2[nH]c1=O` [GSK789], the Kd in data set [1] is 10 nM; in data set [6], 15800 nM; in [7], 3.98 nM; in data set [8] it was 20000 nM; in data set [9] it was > 31600 nM; in [12], 398 nM. For the same molecule, the figures for the Kd in [13] and in data set [15] were 3.98 nM and > 25100 nM, respectively. Moreover, the outcome in data set [2] and in data set [3] was Active. The CLH in [4] was found to be 14.88 mL/min/g; in data set [14], 8.15 mL/min/g. Also, the IC50 is 158 nM in data set [5], 3550 nM in data set [10] and 10000 nM in data set [11]. Besides, the Papp at 3 h in data set [16] is 19 ×10⁻⁶ cm/s.
